Laboratory results taken from patent US20230085307A1, “PYRIDAZINONE COMPOUND AND HERBICIDE” (NISSAN CHEMICAL CORPORATION, priority 2019, published 2023).

Key:
[1] = tested on: late watergrass; assay: Test Example 1: herbicidal activity, application before weed generation under submerged conditions (Table 16, symbol A); format: in vivo, late watergrass (Echinochloa oryzicola); settings: amount of applied herbicide 320 g/ha
Outline: (§1)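 Emulsion formulation, water-diluted to set dose, was put onto the flooded surface (4 cm depth, alluvial soil) the same day weeds were sown and 2.5-leaf rice transplanted. After 3 weeks at 25-30 °C under glass, each species was rated 0 (≤5% kill) to 5 (≥90% kill).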

[2] = tested on: Japanese bulrush; assay: Test Example 1: herbicidal activity, application before weed generation under submerged conditions (Table 16, symbol B); format: in vivo, Japanese bulrush (Schoenoplectus juncoides); settings: amount of applied herbicide 320 g/ha
Outline: as §1

[3] = tested on: late watergrass; assay: Test Example 2: herbicidal activity, application during weed generation under submerged conditions (Table 17, symbol A); format: in vivo, late watergrass (Echinochloa oryzicola); settings: AAH 320 g/ha; application during weed generation, submerged conditions
Outline: (§2)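 Wagner pot, alluvial soil, 4 cm flood; mixed sowing of all species; greenhouse 25° C.–30° C. Emulsifiable formulation, water-diluted to predetermined dose, applied to paddy water at 1–2 leaf stage. Effect rated at 3 wk using the earlier test's scoring criteria.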

[4] = tested on: Japanese bulrush; assay: Test Example 2: herbicidal activity, application during weed generation under submerged conditions (Table 17, symbol B); format: in vivo, Japanese bulrush (Schoenoplectus juncoides); settings: AAH 320 g/ha; application during weed generation, submerged conditions
Outline: as §2

[5] = tested on: barnyard grass; assay: Test Example 3: herbicidal effect by foliage application, Wagner pot (Table 18, symbol H); format: in vivo, barnyard grass (Echinochloa crus-galli); settings: 320 g/ha
Outline: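 Plants were sown in alluvial soil held under 0.1–0.5 cm standing water and grown 14 days in a greenhouse at 25–30 °C. An emulsifiable formulation, water-diluted to the set dose, was then sprayed onto the foliage, and effects were scored three weeks later using previously defined criteria.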

[6] = tested on: green foxtail; assay: Test Example 4: herbicidal effect by soil treatment (Table 19, symbol G); format: in vivo, green foxtail (Setaria viridis); settings: amount of applied herbicide 320 g/ha
Outline: (§3)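 Herbicidal effect was rated 3 weeks after treatment, using the scoring criteria of an earlier test. The compound, formulated as an emulsion and diluted in water to a set herbicide amount, had been sprayed uniformly on soil over freshly sown seeds. Growth took place in a greenhouse at 25° C. to 30° C.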

[7] = tested on: barnyard grass; assay: Test Example 4: herbicidal effect by soil treatment (Table 19, symbol H); format: in vivo, barnyard grass (Echinochloa crus-galli); settings: amount of applied herbicide 320 g/ha
Outline: as §3

[8] = tested on: wild oat; assay: Test Example 4: herbicidal effect by soil treatment (Table 19, symbol I); format: in vivo, wild oat (Avena fatua); settings: amount of applied herbicide 320 g/ha
Outline: as §3

[9] = tested on: blackgrass; assay: Test Example 4: herbicidal effect by soil treatment (Table 19, symbol J); format: in vivo, blackgrass (Alopecurus myosuroides); settings: amount of applied herbicide 320 g/ha
Outline: as §3

[10] = tested on: Italian ryegrass; assay: Test Example 4: herbicidal effect by soil treatment (Table 19, symbol K); format: in vivo, Italian ryegrass (Lolium multiflorum); settings: amount of applied herbicide 320 g/ha
Outline: as §3

[11] = tested on: chickweed; assay: Test Example 4: herbicidal effect by soil treatment (Table 19, symbol P); format: in vivo, common chickweed (Stellaria media); settings: amount of applied herbicide 320 g/ha
Outline: as §3

[12] = tested on: persian speedwell; assay: Test Example 4: herbicidal effect by soil treatment (Table 19, symbol R); format: in vivo, Persian speedwell (Veronica persica); settings: amount of applied herbicide 320 g/ha
Outline: as §3

[13] = tested on: wild oat; assay: Test Example 5: herbicidal effect by foliage application, plastic box (Table 20, symbol I); format: in vivo, wild oat (Avena fatua); settings: 320 g/ha, foliage application after 14-day growth, evaluated three weeks after application
Outline: (§4)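 Foliar spray test: emulsion formulation diluted in water to a set application rate, sprayed onto 14-day-old plants raised in diluvial soil at 25° C to 30° C under glass. Both herbicidal effect and crop effect rated visually three weeks later.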

[14] = tested on: blackgrass; assay: Test Example 5: herbicidal effect by foliage application, plastic box (Table 20, symbol J); format: in vivo, blackgrass (Alopecurus myosuroides); settings: 320 g/ha, foliage application after 14-day growth, evaluated three weeks after application
Outline: as §4

[15] = tested on: Italian ryegrass; assay: Test Example 5: herbicidal effect by foliage application, plastic box (Table 20, symbol K); format: in vivo, Italian ryegrass (Lolium multiflorum); settings: 320 g/ha, foliage application after 14-day growth, evaluated three weeks after application
Outline: as §4

[16] = tested on: velvetleaf; assay: Test Example 5: herbicidal effect by foliage application, plastic box (Table 20, symbol M); format: in vivo, velvetleaf (Abutilon theophrasti); settings: 320 g/ha, foliage application after 14-day growth, evaluated three weeks after application
Outline: as §4

[17] = tested on: redroot pigweed; assay: Test Example 5: herbicidal effect by foliage application, plastic box (Table 20, symbol N); format: in vivo, redroot pigweed (Amaranthus retroflexus); settings: 320 g/ha, foliage application after 14-day growth, evaluated three weeks after application
Outline: as §4

Structure (SMILES)	Herbicidal effect, A: late watergrass [1]	Herbicidal effect, B: Japanese bulrush [2]	herbicidal effect rating, A: late watergrass [3]	herbicidal effect rating, B: Japanese bulrush [4]	herbicidal effect on barnyard grass (H) [5]	Herbicidal effect by soil treatment, G: green foxtail [6]	Herbicidal effect by soil treatment, H: barnyard grass [7]	Herbicidal effect by soil treatment, I: wild oat [8]	Herbicidal effect by soil treatment, J: blackgrass [9]	Herbicidal effect by soil treatment, K: Italian ryegrass [10]	Herbicidal effect by soil treatment, P: chickweed [11]	Herbicidal effect by soil treatment, R: persian speedwell [12]	herbicidal effect on I: wild oat (evaluation grade 0-5) [13]	herbicidal effect on J: blackgrass (evaluation grade 0-5) [14]	herbicidal effect on K: Italian ryegrass (evaluation grade 0-5) [15]	herbicidal effect on M: velvetleaf (evaluation grade 0-5) [16]	herbicidal effect on N: redroot pigweed (evaluation grade 0-5) [17]
CCCC(=O)Oc1c(C)nn(C)c(=O)c1-c1c(-c2ccc(C#N)cc2)sc2c(Cl)cccc12 [4-032]	0 (Herbicidal rate of 5% or less (almost no effect))	2 (Herbicidal rate of 20% or more and less than 40%)	0 (Herbicidal rate of 5% or less (almost no effect))	3 (Herbicidal rate of 40% or more and less than 70%)	4 (Herbicidal rate of 70% or more and less than 90%)	0 (Herbicidal rate of 5% or less (almost no effect))	0 (Herbicidal rate of 5% or less (almost no effect))	0 (Herbicidal rate of 5% or less (almost no effect))	0 (Herbicidal rate of 5% or less (almost no effect))	0 (Herbicidal rate of 5% or less (almost no effect))	3 (Herbicidal rate of 40% or more and less than 70%)	3 (Herbicidal rate of 40% or more and less than 70%)	0 (Herbicidal rate of 5% or less (almost no effect))	0 (Herbicidal rate of 5% or less (almost no effect))	0 (Herbicidal rate of 5% or less (almost no effect))	4 (Herbicidal rate of 70% or more and less than 90%)	5 (Herbicidal rate of 90% or more (almost completely withered))
CCCC(=O)Oc1c(C)nn(C)c(=O)c1-c1c(-c2ccccc2OCC)sc2c(Cl)cccc12 [4-026]	5 (Herbicidal rate of 90% or more (almost completely withered))	3 (Herbicidal rate of 40% or more and less than 70%)	3 (Herbicidal rate of 40% or more and less than 70%)	3 (Herbicidal rate of 40% or more and less than 70%)	5 (Herbicidal rate of 90% or more (almost completely withered))	3 (Herbicidal rate of 40% or more and less than 70%)	3 (Herbicidal rate of 40% or more and less than 70%)	0 (Herbicidal rate of 5% or less (almost no effect))	0 (Herbicidal rate of 5% or less (almost no effect))	0 (Herbicidal rate of 5% or less (almost no effect))	1 (Herbicidal rate of 5% or more and less than 20%)	2 (Herbicidal rate of 20% or more and less than 40%)	0 (Herbicidal rate of 5% or less (almost no effect))	3 (Herbicidal rate of 40% or more and less than 70%)	1 (Herbicidal rate of 5% or more and less than 20%)	5 (Herbicidal rate of 90% or more (almost completely withered))	5 (Herbicidal rate of 90% or more (almost completely withered))
